IC50 and inhibition data for three compounds are collected here from PMC4501547, “Virtual and In Vitro Screens Reveal a Potential Pharmacophore that Avoids the Fibrillization of Aβ1–42” (PLoS ONE, 2015).

Test [1] has as its target T1, Aβ1–42 (amyloid β peptide, 42 residues) (Homo sapiens, UniProt P05067).
T1 construct: gene APP; wild-type 42-residue peptide Abeta 1-42, cut from amyloid-beta precursor protein (APP770 residues 672-713); lyophilized, chloride salt, purchased from Calbiochem; non-fibrillated at start, aggregating during the assay
Put plainly: Thioflavin T fluorescence fibrillization assay. The class given is biochemical.

The target of test [2] is T1, Aβ1–42 (amyloid β peptide, 42 residues). Briefly: Thioflavin T fluorescence fibrillization assay. The test is classed as biochemical. This is another data set of the same source.

By IC50 is commonly meant the concentration that gives 50% inhibition. A high value points to weaker potency. As a reminder, the inhibition is the drop in the measured response relative to a control, in per cent. Higher therefore signals a strong effect.

T1 sequence (P05067 672-713): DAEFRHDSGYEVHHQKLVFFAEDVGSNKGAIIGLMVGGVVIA

Consider `CC(C(=O)Nc1ccc(C(C)(C)C)cc1)N1CCCC1` (stereo not drawn) [compound 5], for which the IC50 in test [1] was found to be 1.28 µM.
On the same count and under the same terms, under `O=C(COc1ccccc1)C1CCCN1` (stereo not drawn) [compound 8] stands 34.4 µM.
`COc1ccc(C2CNC(=O)C2)cc1OC1CCCC1` (stereo not drawn) [compound 14]: the inhibition at 100 µM in test [2] is approximately 50%.
